Assay results: patent publication US20110098177A1, “METHODS AND COMPOSITIONS OF PLANT MICRONUTRIENTS” (NOVUS INTERNATIONAL INC., priority 2006, published 2011)
Read-outs that look alike come from different tables or passages of the source.

Columns and labels:
Assay type in all cases: in vivo
Tygress tomato plants = conditions: for Toxicity (0-10): 0=no injury, 10=plant death
Procedure, shortened: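 Greenhouse 'Tygress' tomatoes in micronutrient-deficient medium received foliar micronutrient treatments at 6 weeks after transplanting, 200 mL/plant in deionized water with non-ionic surfactant. Foliar injury rated visually 0 (none) to 10 (plant death); randomized complete block, 6 replications, LSD at 5%.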

[1] = system: soybean plants (Asgrow 1102); assay: Visual greenness ratings (1-5 scale) of soybean plants, open-field (Examples 11-12); conditions: for Greenness of soybean plants compared to control, statement: Foxhome site, 29 July rating
Protocol: The following experiments were performed on soybean plants growing in open-field plots during the summer and fall of 2008 at two production fields in West Central Minnesota. […] Trial design was a randomized complete block with 4 replications. Each plot measured 10' by 30' and consisted of five 22'' rows. Although all five rows of each plot were treated, only the center three rows (25' in length) of each plot were machine harvested. The two fields selected for these studies had historical Iron Deficiency Chlorosis (IDC) issues. The two field sites were planted by farmers with elite Roundup Ready commodity type soybean varieties with IDC tolerance (Asgrow 1102, Monsanto Corp.). […] BIOX-M was applied at a rate of 1.12 kg Mn/ha. […] All V4 treatments were applied in 10 gallons per acre of water with a backpack sprayer with a hand boom designed to “band” apply product directly to the plant row. Three nozzles with ConeJet TXVS-2 tips were oriented on either side and over the top of each row. This maximized the applied product to the plant tissue itself and minimized application of product to the soil surface. […] The V6 treatments (where applicable) were applied in 20 gallons per acre of water to increase the suspension of the BIOX products.

[2] = system: soybean plants (Asgrow 1102); assay: Soybean seed protein and oil content (Examples 11-12); conditions: in %
Protocol: (§1) The following experiments were performed on soybean plants growing in open-field plots during the summer and fall of 2008 at two production fields in West Central Minnesota. […] Trial design was a randomized complete block with 4 replications. Each plot measured 10' by 30' and consisted of five 22'' rows. Although all five rows of each plot were treated, only the center three rows (25' in length) of each plot were machine harvested. The two fields selected for these studies had historical Iron Deficiency Chlorosis (IDC) issues. The two field sites were planted by farmers with elite Roundup Ready commodity type soybean varieties with IDC tolerance (Asgrow 1102, Monsanto Corp.). […] BIOX-M was applied at a rate of 1.12 kg Mn/ha. […] All V4 treatments were applied in 10 gallons per acre of water with a backpack sprayer with a hand boom designed to “band” apply product directly to the plant row. Three nozzles with ConeJet TXVS-2 tips were oriented on either side and over the top of each row. This maximized the applied product to the plant tissue itself and minimized application of product to the soil surface. […] The V6 treatments (where applicable) were applied in 20 gallons per acre of water to increase the suspension of the BIOX products. Soybean seed was harvested after soybean maturity was reached (3 October at […], and 17 Oct. 2008 at Foxhome) and seed yields for each experimental treatment group were determined. In addition, seed samples from each treatment were dried to 13% moisture content, then analyzed for protein and oil content.

[3] = system: soybean plants (Asgrow 1102); assay: Soybean seed yield (Examples 11-12)
Protocol: as §1

## CSCCC(O)C(=O)[O-].CSCCC(O)C(=O)[O-].[Cu+2] (centres unmarked) [BIOX-Cu, Cu-HMTBA]
Tygress tomato plants; BIOX-Cu at 0.46 and 0.55 lb/acre, Cu-sulfate at 0.8 lb/acre, BIOX-EDC at 0.4 lb/acre
  Toxicity compared to non-treated control plants, statement: increased levels of toxicity
Tygress tomato plants; Cu 0.14 lb/acre
  Toxicity (0-10): 0
Tygress tomato plants; Cu 0.28 lb/acre
  Toxicity (0-10): 1
Tygress tomato plants; Cu 0.46 lb/acre
  Toxicity (0-10): 5
Tygress tomato plants; Cu 0.55 lb/acre
  Toxicity (0-10): 6
Tygress tomato plants; the two low levels of BIOX-Cu (0.14 and 0.28 lb/acre)
  Toxicity, statement: no toxic effects

## CSCCC(O)C(=O)[O-].CSCCC(O)C(=O)[O-].[Mn+2] (centres unmarked) [BIOX-M, Mn-HMTBA]
[1]; 7.0 kg/ha, V4, Jul. 15, 2008 Rating, Foxhome
  Mean visual greenness scores (1-5): 2.5
[1]; 7.0 kg/ha, V4, Jul. 15, 2008 Rating, Renville
  Mean visual greenness scores (1-5): 2.9
[1]; 7.0 kg/ha, V4, Jul. 29, 2008 Rating, Foxhome
  Mean visual greenness scores (1-5): 1.0 C
[1]; 7.0 kg/ha, V4, Jul. 29, 2008 Rating, Renville
  Mean visual greenness scores (1-5): 1.3
[1]; BIOX-M 1.12 kg Mn/ha
  Greenness of soybean plants compared to control, statement: small but significant increase in greenness
[2]; 7.0 kg/ha, V4, Foxhome
  Oil content (13% moisture): 18.28
  Protein content (13% moisture): 32.90
[2]; 7.0 kg/ha, V4, Renville
  Oil content (13% moisture): 19.97
  Protein content (13% moisture): 31.97
[3]; 7.0 kg/ha, V4, Foxhome
  Yield: 43.63 Bu/A
[3]; 7.0 kg/ha, V4, Renville
  Yield: 24.15 Bu/A

## Fe-HMTBA [BIOX-Fe]
Tygress tomato plants; Fe 0.28 lb/acre
  Toxicity (0-10): 0
Tygress tomato plants; Fe 0.57 lb/acre
  Toxicity (0-10): 0
Tygress tomato plants; Fe 1.12 lb/acre
  Toxicity (0-10): 1
Tygress tomato plants; Fe 1.74 lb/acre
  Toxicity (0-10): 1
Tygress tomato plants; Fe 2.3 lb/acre
  Toxicity (0-10): 2
Tygress tomato plants; all levels of BIOX-Fe, Fe-sulfate at 2.0 lb/acre, BIOX-EDF at 0.3 lb/acre
  Toxicity relative to the non-treated control, statement: no increased toxicity relative to the non-treated control
[1]; 0.558 kg/ha, V4, V6, Jul. 15, 2008 Rating, Foxhome
  Mean visual greenness scores (1-5): 2.4
[1]; 0.558 kg/ha, V4, V6, Jul. 15, 2008 Rating, Renville
  Mean visual greenness scores (1-5): 2.4
[1]; 0.558 kg/ha, V4, V6, Jul. 29, 2008 Rating, Foxhome
  Mean visual greenness scores (1-5): 1.0 C
[1]; 0.558 kg/ha, V4, V6, Jul. 29, 2008 Rating, Renville
  Mean visual greenness scores (1-5): 1.1
[1]; 0.558 kg/ha, V4, Jul. 15, 2008 Rating, Foxhome
  Mean visual greenness scores (1-5): 2.8
[1]; 0.558 kg/ha, V4, Jul. 15, 2008 Rating, Renville
  Mean visual greenness scores (1-5): 2.6
[1]; 0.558 kg/ha, V4, Jul. 29, 2008 Rating, Foxhome
  Mean visual greenness scores (1-5): 1.4 B, C
[1]; 0.558 kg/ha, V4, Jul. 29, 2008 Rating, Renville
  Mean visual greenness scores (1-5): 1.1
[1]; 1.12 kg/ha, V4, V6, Jul. 15, 2008 Rating, Foxhome
  Mean visual greenness scores (1-5): 2.6
[1]; 1.12 kg/ha, V4, V6, Jul. 15, 2008 Rating, Renville
  Mean visual greenness scores (1-5): 2.6
[1]; 1.12 kg/ha, V4, V6, Jul. 29, 2008 Rating, Foxhome
  Mean visual greenness scores (1-5): 1.5 A, B, C
[1]; 1.12 kg/ha, V4, V6, Jul. 29, 2008 Rating, Renville
  Mean visual greenness scores (1-5): 1.4
[1]; 1.12 kg/ha, V4, Jul. 15, 2008 Rating, Foxhome
  Mean visual greenness scores (1-5): 2.5
[1]; 1.12 kg/ha, V4, Jul. 15, 2008 Rating, Renville
  Mean visual greenness scores (1-5): 2.1
[1]; 1.12 kg/ha, V4, Jul. 29, 2008 Rating, Foxhome
  Mean visual greenness scores (1-5): 1.0 C
[1]; 1.12 kg/ha, V4, Jul. 29, 2008 Rating, Renville
  Mean visual greenness scores (1-5): 1.0
[1]; higher rate (269 g Fe/ha) at V4 only
  Greenness of soybean plants compared to control, statement: significantly increased the greenness in treated plants
[1]; higher rate (269 g Fe/ha) at both V4 and V6
  Greenness of soybean plants compared to control, statement: no change in greenness compared to control
[1]; iron concentrations 0.094% - 0.376% by weight
  Toxic effects on soybean plants (in words): without toxic effects
[1]; lower rate (134 g Fe/ha) at V4
  Greenness of soybean plants compared to control, statement: had no effect on greenness
[1]; lower rate (134 g Fe/ha) at both V4 and V6
  Greenness of soybean plants compared to control, statement: significantly increased the greenness of the soybean plants
[2]; 0.558 kg/ha, V4, V6, Foxhome
  Oil content (13% moisture): 18.42
  Protein content (13% moisture): 32.73
[2]; 0.558 kg/ha, V4, V6, Renville
  Oil content (13% moisture): 20.16
  Protein content (13% moisture): 32.04
[2]; 0.558 kg/ha, V4, Foxhome
  Oil content (13% moisture): 18.46
  Protein content (13% moisture): 32.60
[2]; 0.558 kg/ha, V4, Renville
  Oil content (13% moisture): 20.12
  Protein content (13% moisture): 31.93
[2]; 1.12 kg/ha, V4, V6, Foxhome
  Oil content (13% moisture): 18.40
  Protein content (13% moisture): 32.68
[2]; 1.12 kg/ha, V4, V6, Renville
  Oil content (13% moisture): 20.10
  Protein content (13% moisture): 32.36
[2]; 1.12 kg/ha, V4, Foxhome
  Oil content (13% moisture): 18.48
  Protein content (13% moisture): 32.47
[2]; 1.12 kg/ha, V4, Renville
  Oil content (13% moisture): 20.28
  Protein content (13% moisture): 32.23
[3]; 0.558 kg/ha, V4, V6, Foxhome
  Yield: 46.01 Bu/A
[3]; 0.558 kg/ha, V4, V6, Renville
  Yield: 27.65 Bu/A
[3]; 0.558 kg/ha, V4, Foxhome
  Yield: 43.17 Bu/A
[3]; 0.558 kg/ha, V4, Renville
  Yield: 27.92 Bu/A
[3]; 1.12 kg/ha, V4, V6, Foxhome
  Yield: 43.43 Bu/A
[3]; 1.12 kg/ha, V4, V6, Renville
  Yield: 26.62 Bu/A
[3]; 1.12 kg/ha, V4, Foxhome
  Yield: 44.23 Bu/A
[3]; 1.12 kg/ha, V4, Renville
  Yield: 27.43 Bu/A
